According to the NIST ThermoML archive (doi:10.1021/je900210h):

Conditions: Fluid (supercritical or subcritical phases), Coaxial cylinder method

FCC(F)(F)F [1,1,1,2-tetrafluoroethane]
Conditions	thermal conductivity [W/m/K]
377.87 K, 4339 kPa	0.0617
377.87 K, 4470 kPa	0.0614
377.87 K, 4479 kPa	0.0606
377.89 K, 4330 kPa	0.0583
377.89 K, 4518 kPa	0.0587
377.89 K, 4531 kPa	0.0582
377.9 K, 4541 kPa	0.0575
377.9 K, 4551 kPa	0.057
377.9 K, 4561 kPa	0.0566
377.9 K, 4582 kPa	0.0563
377.91 K, 4321 kPa	0.0557
377.93 K, 4309 kPa	0.0521
377.93 K, 4800 kPa	0.0547
377.93 K, 4851 kPa	0.0547
377.95 K, 4301 kPa	0.0503
377.96 K, 6000 kPa	0.0569
377.97 K, 4302 kPa	0.0487
378.02 K, 4500 kPa	0.0601
378.05 K, 7003 kPa	0.0589
378.07 K, 180 kPa	0.02003
378.07 K, 6502 kPa	0.058
378.11 K, 5504 kPa	0.056
378.16 K, 8004 kPa	0.0605
378.18 K, 7450 kPa	0.0597
378.24 K, 10507 kPa	0.064
378.25 K, 4395 kPa	0.0667
378.25 K, 4400 kPa	0.0667
378.25 K, 9919 kPa	0.0632
378.25 K, 21005 kPa	0.0736
378.26 K, 4380 kPa	0.0657
378.26 K, 4390 kPa	0.0664
378.26 K, 4410 kPa	0.0667
378.26 K, 4420 kPa	0.0661
378.26 K, 4430 kPa	0.0655
378.26 K, 9506 kPa	0.0627
378.27 K, 4370 kPa	0.0645
378.27 K, 4440 kPa	0.0645
378.27 K, 4450 kPa	0.0639
378.27 K, 4460 kPa	0.0633
378.27 K, 9008 kPa	0.062
378.27 K, 18500 kPa	0.0716
378.28 K, 4360 kPa	0.0622
378.28 K, 4470 kPa	0.0625
378.28 K, 4480 kPa	0.0616
378.29 K, 4350 kPa	0.0597
378.29 K, 4490 kPa	0.0611
378.29 K, 4500 kPa	0.0608
378.29 K, 4510 kPa	0.0603
378.29 K, 4520 kPa	0.0601
378.29 K, 4530 kPa	0.0598
378.29 K, 8408 kPa	0.0612
378.29 K, 16500 kPa	0.0701
378.3 K, 4540 kPa	0.0595
378.3 K, 4550 kPa	0.0593
378.3 K, 4570 kPa	0.0588
378.3 K, 4590 kPa	0.0585
378.31 K, 4340 kPa	0.057
378.31 K, 4620 kPa	0.0581
378.31 K, 4626 kPa	0.0578
378.31 K, 4650 kPa	0.0573
378.31 K, 4688 kPa	0.0571
378.31 K, 4730 kPa	0.0569
378.31 K, 14505 kPa	0.0683
378.32 K, 4770 kPa	0.0567
378.33 K, 4330 kPa	0.0547
378.33 K, 13441 kPa	0.0674
378.34 K, 12420 kPa	0.0663
378.35 K, 4320 kPa	0.0524
378.36 K, 4310 kPa	0.0506
378.36 K, 11376 kPa	0.065
378.37 K, 10981 kPa	0.0646
378.38 K, 4300 kPa	0.0488
378.4 K, 4290 kPa	0.0472
378.41 K, 4280 kPa	0.0461
378.43 K, 4260 kPa	0.0438
378.45 K, 4240 kPa	0.0422
378.47 K, 4220 kPa	0.0408
378.49 K, 4200 kPa	0.0395
378.5 K, 4180 kPa	0.0385
378.53 K, 4140 kPa	0.0368
378.53 K, 4150 kPa	0.0371
378.54 K, 4130 kPa	0.0364
378.59 K, 4860 kPa	0.0565
378.59 K, 4900 kPa	0.0565
378.63 K, 440 kPa	0.02017
378.74 K, 180 kPa	0.02012
378.81 K, 4120 kPa	0.036
378.83 K, 4090 kPa	0.0351
378.85 K, 4050 kPa	0.0339
378.9 K, 330 kPa	0.02026
378.9 K, 3950 kPa	0.0317
